Patent publication US20080009418A1, “Selective Inhibitors” (Alchemia LTD., priority 2004, published 2008)

Legend:
[1] = biological target: T1, Human melanocortin (MC5) (Homo sapiens, UniProt P33032); experiment: Radioligand binding, human melanocortin MC5 membranes, FlashPlate, [125I]-NDP-αMSH; details: compound at 10 μM; for A5 radioligand binding inhibition: human melanocortin MC5 membranes; for A5: inhibition of radioligand binding: FlashPlate
T1 construct: purchased Perkin Elmer Biosignal
Outline: (§1)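 Cloned human receptor membranes were coated onto FlashPlate wells and incubated with radioligand and compound (added from a 0.5 mM DMSO daughter plate) for 1 hour at room temperature in the dark. Scintillation counting gave percent inhibition, with DMSO defining total and reference ligand defining non-specific binding.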

[2] = biological target: T2, Human neurokinin (NK1) (Homo sapiens, UniProt P25103); experiment: Radioligand binding, human neurokinin NK1 membranes, filtration, [125I]-Substance P; details: compound at 10 μM; for A8 radioligand binding inhibition: human neurokinin NK1 membranes; for A8: inhibition of radioligand binding: filtration
T2 construct: purchased Perkin Elmer Biosignal
Outline: (§2)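 Membranes from cloned human receptors were incubated with compound and radioligand for 1 hour at room temperature. Bound ligand was collected on 0.3% PEI-soaked filters, washed with cold 50 mM Tris-HCl pH 7.4, and counted by scintillation. Percent inhibition was computed against DMSO totals and reference-ligand nonspecific wells.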

[3] = biological target: T3, Human μ-opioid (MOP) (Homo sapiens, UniProt P35372); experiment: Radioligand binding, human μ-opioid (MOP) membranes, FlashPlate, [3H]-Naloxone; details: compound at 10 μM; for A7 radioligand binding inhibition: human μ-opioid (MOP) membranes; for A7: inhibition of radioligand binding: FlashPlate
T3 construct: purchased Perkin Elmer Biosignal
Outline: as §1

[4] = biological target: T4, Human Melanocortin (MC4) (Homo sapiens, UniProt P32245); experiment: Radioligand binding, human melanocortin MC4 membranes, FlashPlate, [125I]-NDP-αMSH; details: compound at 10 μM; for A4 radioligand binding inhibition: human melanocortin MC4 membranes; for A4: inhibition of radioligand binding: FlashPlate
T4 construct: purchased Perkin Elmer Biosignal
Outline: as §1

[5] = biological target: T5, Human κ-Opioid (KOP) (Homo sapiens, UniProt P41145); experiment: Radioligand binding, human κ-opioid (KOP) membranes, filtration, [3H]-Diprenorphine; details: compound at 10 μM; for A2 radioligand binding inhibition: human κ-opioid (KOP) membranes; for A2: inhibition of radioligand binding: filtration
T5 construct: purchased Perkin Elmer Biosignal
Outline: as §2

[6] = biological target: T6, Human melanin-concentrating hormone (MCH1) (Homo sapiens, UniProt Q99705); experiment: Radioligand binding, human melanin-concentrating hormone MCH1 membranes, FlashPlate, [125I]-S36057; details: compound at 10 μM; for A6 radioligand binding inhibition: human MCH1 membranes; for A6: inhibition of radioligand binding: [125I]-S36057, FlashPlate
T6 construct: purchased Perkin Elmer Biosignal
Outline: as §1

[7] = biological target: T7, Human neuropeptide Y (NPY-Y1) (Homo sapiens, UniProt P25929); experiment: Radioligand binding, human neuropeptide Y NPY-Y1 membranes, FlashPlate, [125I]-PYY; details: compound at 10 μM; for A9 radioligand binding inhibition: human NPY-Y1 membranes; for A9: inhibition of radioligand binding: FlashPlate
T7 construct: purchased Perkin Elmer Biosignal
T7 sequence (P25929 1-384): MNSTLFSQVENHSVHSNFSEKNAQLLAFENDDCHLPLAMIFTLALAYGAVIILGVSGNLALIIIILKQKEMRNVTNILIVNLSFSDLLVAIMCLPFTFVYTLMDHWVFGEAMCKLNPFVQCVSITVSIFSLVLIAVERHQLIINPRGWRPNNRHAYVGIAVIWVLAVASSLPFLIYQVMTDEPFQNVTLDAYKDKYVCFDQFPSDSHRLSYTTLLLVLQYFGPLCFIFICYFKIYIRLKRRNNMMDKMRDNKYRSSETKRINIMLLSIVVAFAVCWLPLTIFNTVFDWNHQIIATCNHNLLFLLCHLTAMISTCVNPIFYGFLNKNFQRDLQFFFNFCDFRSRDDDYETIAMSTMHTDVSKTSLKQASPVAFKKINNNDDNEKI
Outline: as §1

[8] = biological target: T8, Human δ-opioid (DOP) (Homo sapiens, UniProt P41143); experiment: Radioligand binding, human δ-opioid (DOP) membranes, FlashPlate, [3H]-Bremazocine; details: compound at 10 μM; for A1 radioligand binding inhibition: human δ-opioid (DOP) membranes; for A1: inhibition of radioligand binding: FlashPlate
T8 construct: purchased Perkin Elmer Biosignal
Outline: as §1

[9] = biological target: T9, Mouse urotensin (mUR2) (Mus musculus, UniProt Q8VIH9); experiment: Radioligand binding, mouse urotensin mUR2 membranes, FlashPlate, [125I]-Urotensin II; details: compound at 10 μM; for A11 radioligand binding inhibition: mouse urotensin mUR2 membranes; for A11: inhibition of radioligand binding: FlashPlate
T9 construct: purchased Perkin Elmer Biosignal
T9 sequence (Q8VIH9 1-385): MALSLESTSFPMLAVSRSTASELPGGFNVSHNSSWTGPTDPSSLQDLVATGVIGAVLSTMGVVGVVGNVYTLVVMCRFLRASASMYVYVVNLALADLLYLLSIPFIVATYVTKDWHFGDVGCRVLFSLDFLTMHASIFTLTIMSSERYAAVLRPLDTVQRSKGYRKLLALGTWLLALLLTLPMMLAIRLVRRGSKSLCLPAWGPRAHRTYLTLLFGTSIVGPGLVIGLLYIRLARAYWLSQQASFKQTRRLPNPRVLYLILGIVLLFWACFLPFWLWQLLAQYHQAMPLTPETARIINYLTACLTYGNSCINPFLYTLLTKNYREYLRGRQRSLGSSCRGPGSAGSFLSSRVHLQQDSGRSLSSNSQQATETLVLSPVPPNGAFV
Outline: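 Cloned mouse urotensin (mUR2) receptor membranes from Perkin Elmer Biosignal were immobilized in FlashPlate microplates using a proprietary coating. Each well got 19.5 μl buffer, then 0.5 μl of DMSO, reference ligand, or compound. Adding 5 μl of [125I]-Urotensin II, diluted to 5× final concentration in binding buffer, started binding. Plates were sealed with TopSeal-A and incubated 1 hour at room temperature in the dark. Wells were counted for 30 seconds each on a TopCount after a 60-second delay, and percentage inhibition was calculated.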

[10] = biological target: T10, Human opioid (ORL1) (Homo sapiens, UniProt P41146); experiment: Radioligand binding, human opioid ORL1 membranes, FlashPlate, [125I]-Nociceptin; details: compound at 10 μM; for A10 radioligand binding inhibition: human ORL1 membranes; for A10: inhibition of radioligand binding: FlashPlate
T10 construct: purchased Perkin Elmer Biosignal
Outline: as §1

[11] = biological target: T11, Human Melanocortin (MC3) (Homo sapiens, UniProt P41968); experiment: Radioligand binding, human melanocortin MC3 membranes, FlashPlate, [125I]-NDP-αMSH; details: compound at 10 μM; for A3 radioligand binding inhibition: human melanocortin MC3 membranes; for A3: inhibition of radioligand binding: FlashPlate
T11 construct: purchased Perkin Elmer Biosignal
Outline: as §1

T10 sequence (P41146 whole entry): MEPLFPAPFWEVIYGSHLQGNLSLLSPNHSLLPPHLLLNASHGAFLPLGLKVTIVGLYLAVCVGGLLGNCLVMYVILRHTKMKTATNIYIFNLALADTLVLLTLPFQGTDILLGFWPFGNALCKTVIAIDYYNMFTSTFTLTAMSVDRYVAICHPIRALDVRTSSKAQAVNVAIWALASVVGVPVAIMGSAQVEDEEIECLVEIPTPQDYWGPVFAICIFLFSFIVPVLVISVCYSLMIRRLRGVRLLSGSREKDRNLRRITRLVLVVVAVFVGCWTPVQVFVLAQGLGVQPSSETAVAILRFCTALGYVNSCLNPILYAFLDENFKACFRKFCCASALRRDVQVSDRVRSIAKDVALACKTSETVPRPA
T11 sequence (P41968 whole entry): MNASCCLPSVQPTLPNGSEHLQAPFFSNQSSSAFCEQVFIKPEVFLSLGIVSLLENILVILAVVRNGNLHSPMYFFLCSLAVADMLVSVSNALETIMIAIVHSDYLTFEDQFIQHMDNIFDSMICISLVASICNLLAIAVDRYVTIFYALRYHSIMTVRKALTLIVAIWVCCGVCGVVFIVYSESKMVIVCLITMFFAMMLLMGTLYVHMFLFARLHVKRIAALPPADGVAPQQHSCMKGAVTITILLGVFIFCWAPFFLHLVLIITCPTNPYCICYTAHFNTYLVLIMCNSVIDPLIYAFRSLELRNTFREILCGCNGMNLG
T4 sequence (P32245 whole entry): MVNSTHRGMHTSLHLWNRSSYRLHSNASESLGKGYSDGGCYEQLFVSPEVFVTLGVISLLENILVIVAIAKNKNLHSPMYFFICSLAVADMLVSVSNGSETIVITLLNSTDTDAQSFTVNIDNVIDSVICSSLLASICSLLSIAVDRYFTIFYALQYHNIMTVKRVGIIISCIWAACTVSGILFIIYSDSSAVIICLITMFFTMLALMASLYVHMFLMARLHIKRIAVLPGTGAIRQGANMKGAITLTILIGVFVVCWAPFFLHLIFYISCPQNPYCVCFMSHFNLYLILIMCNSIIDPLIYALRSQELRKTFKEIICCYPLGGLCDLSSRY
T2 sequence (P25103 whole entry): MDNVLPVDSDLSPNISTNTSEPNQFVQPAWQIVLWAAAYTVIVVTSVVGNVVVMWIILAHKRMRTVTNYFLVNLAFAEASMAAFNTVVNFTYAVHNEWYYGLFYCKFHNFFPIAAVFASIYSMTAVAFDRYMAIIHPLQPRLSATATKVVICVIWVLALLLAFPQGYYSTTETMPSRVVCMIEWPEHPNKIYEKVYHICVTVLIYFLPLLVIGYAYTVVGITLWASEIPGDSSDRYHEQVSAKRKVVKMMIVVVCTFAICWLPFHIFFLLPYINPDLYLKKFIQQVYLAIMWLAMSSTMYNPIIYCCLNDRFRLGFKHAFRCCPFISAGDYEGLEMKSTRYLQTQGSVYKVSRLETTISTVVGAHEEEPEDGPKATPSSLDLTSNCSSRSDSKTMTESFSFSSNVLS
T1 sequence (P33032 whole entry): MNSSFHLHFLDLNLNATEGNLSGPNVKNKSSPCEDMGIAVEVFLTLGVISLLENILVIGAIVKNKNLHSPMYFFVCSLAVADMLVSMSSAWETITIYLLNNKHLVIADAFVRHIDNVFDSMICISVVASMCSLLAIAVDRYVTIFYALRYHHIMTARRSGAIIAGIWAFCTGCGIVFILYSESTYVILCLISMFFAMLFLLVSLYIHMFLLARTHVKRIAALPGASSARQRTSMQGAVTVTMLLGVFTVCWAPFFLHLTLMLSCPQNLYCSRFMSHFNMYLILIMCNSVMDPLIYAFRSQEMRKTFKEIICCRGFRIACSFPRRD
T5 sequence (P41145 whole entry): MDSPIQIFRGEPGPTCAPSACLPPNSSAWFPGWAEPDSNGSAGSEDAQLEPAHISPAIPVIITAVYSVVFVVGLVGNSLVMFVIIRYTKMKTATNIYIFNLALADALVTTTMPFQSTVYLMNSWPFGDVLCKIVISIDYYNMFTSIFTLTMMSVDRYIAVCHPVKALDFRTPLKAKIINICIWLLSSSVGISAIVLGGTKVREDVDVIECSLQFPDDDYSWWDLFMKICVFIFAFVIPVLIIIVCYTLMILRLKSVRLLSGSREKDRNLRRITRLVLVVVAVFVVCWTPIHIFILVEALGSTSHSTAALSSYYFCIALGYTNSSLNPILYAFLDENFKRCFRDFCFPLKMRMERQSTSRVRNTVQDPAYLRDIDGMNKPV
T3 sequence (P35372 whole entry): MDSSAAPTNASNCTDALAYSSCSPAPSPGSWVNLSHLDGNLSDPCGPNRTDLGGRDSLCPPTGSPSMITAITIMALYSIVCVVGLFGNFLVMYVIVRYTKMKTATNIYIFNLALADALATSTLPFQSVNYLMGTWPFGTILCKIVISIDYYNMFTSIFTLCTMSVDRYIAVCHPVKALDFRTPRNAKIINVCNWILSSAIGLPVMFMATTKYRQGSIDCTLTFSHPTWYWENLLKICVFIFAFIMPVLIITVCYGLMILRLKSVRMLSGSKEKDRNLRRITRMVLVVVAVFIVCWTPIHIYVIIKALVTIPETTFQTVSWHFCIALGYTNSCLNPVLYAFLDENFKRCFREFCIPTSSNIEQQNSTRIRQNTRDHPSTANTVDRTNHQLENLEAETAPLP
T6 sequence (Q99705 whole entry): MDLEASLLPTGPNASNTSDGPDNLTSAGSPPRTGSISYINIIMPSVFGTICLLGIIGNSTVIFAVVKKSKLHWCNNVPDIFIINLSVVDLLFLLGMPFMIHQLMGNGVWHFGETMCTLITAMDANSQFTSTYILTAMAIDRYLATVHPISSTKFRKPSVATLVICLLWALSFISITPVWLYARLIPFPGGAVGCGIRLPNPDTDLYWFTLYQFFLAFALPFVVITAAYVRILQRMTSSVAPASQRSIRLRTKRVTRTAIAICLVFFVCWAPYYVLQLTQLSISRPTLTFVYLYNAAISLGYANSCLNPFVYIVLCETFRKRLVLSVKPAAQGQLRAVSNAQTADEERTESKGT
T8 sequence (P41143 whole entry): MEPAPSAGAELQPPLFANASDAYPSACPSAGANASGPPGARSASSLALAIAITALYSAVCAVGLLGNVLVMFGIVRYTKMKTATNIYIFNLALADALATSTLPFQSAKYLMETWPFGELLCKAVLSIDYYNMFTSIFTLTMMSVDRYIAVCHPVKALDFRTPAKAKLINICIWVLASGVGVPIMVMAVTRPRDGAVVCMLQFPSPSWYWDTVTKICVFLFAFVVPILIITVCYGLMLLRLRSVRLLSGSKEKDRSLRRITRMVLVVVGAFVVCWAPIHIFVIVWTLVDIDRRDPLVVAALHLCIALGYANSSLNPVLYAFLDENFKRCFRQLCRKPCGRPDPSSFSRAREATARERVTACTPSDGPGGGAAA

Row | Compound | A5 radioligand binding inhibition [1] | A8 radioligand binding inhibition [2] | A7 radioligand binding inhibition [3] | A4 radioligand binding inhibition [4] | A2 radioligand binding inhibition [5] | A6 radioligand binding inhibition [6] | A9 radioligand binding inhibition [7] | A1 radioligand binding inhibition [8] | A11 radioligand binding inhibition [9] | A10 radioligand binding inhibition [10] | A3 radioligand binding inhibition [11] | A5: inhibition of radioligand binding ([1]; [125I]-NDP-αMSH) | A8: inhibition of radioligand binding ([2]; [125I]-Substance P) | A7: inhibition of radioligand binding ([3]; [3H]-Naloxone) | A4: inhibition of radioligand binding ([4]; [125I]-NDP-αMSH) | A2: inhibition of radioligand binding ([5]; [3H]-Diprenorphine) | A6: inhibition of radioligand binding [6] | A9: inhibition of radioligand binding ([7]; [125I]-PYY) | A1: inhibition of radioligand binding ([8]; [3H]-Bremazocine) | A11: inhibition of radioligand binding ([9]; [125I]-Urotensin II) | other results
1 | COC[C@H]1OC(OCc2ccc(-c3ccccc3)cc2)[C@H](NC(=O)CCCN)[C@@H](OCc2ccc(-c3ccccc3)cc2)[C@@H]1O (stereo partly shown) [compound 2] | + (“+” indicates greater than 50% inhibition at 10 μM) | + (“+” indicates greater than 50% inhibition at 10 μM) | − (“−” indicates less than 50% inhibition at 10 μM) | + (“+” indicates greater than 50% inhibition at 10 μM) | − (“−” indicates less than 50% inhibition at 10 μM) | + (“+” indicates greater than 50% inhibition at 10 μM) | − (“−” indicates less than 50% inhibition at 10 μM) | − (“−” indicates less than 50% inhibition at 10 μM) | − (“−” indicates less than 50% inhibition at 10 μM) | − (“−” indicates less than 50% inhibition at 10 μM) | − (“−” indicates less than 50% inhibition at 10 μM) |  |  |  |  |  |  |  |  |  | 
2 | CSC1OC(COCc2ccc(Cl)cc2)C(O)C(OCc2ccc3ccccc3c2)C1NC(=O)CCN (stereo not shown) [compound 308] |  |  |  |  |  |  |  |  |  |  |  |  |  |  |  |  |  |  |  |  | A5: inhibition of radioligand binding, human melanocortin (MC5) ([1]; [125I]-NDP-αMSH): − (“−” indicates less than 50% inhibition at 10 μM); A8: inhibition of radioligand binding, human neurokinin (NK1) ([2]; [125I]-Substance P): + (“+” indicates greater than 50% inhibition at 10 μM); A7: inhibition of radioligand binding, human μ-opioid (MOP) ([3]; [3H]-Naloxone): − (“−” indicates less than 50% inhibition at 10 μM); A4: inhibition of radioligand binding, human melanocortin (MC4) ([4]; [125I]-NDP-αMSH): − (“−” indicates less than 50% inhibition at 10 μM); A2: inhibition of radioligand binding, human κ-opioid (KOP) ([5]; [3H]-Diprenorphine): − (“−” indicates less than 50% inhibition at 10 μM); A6: inhibition of radioligand binding, human melanin-concentrating hormone (MCH1) ([6]; [125I]-S36057): − (“−” indicates less than 50% inhibition at 10 μM); A9: inhibition of radioligand binding, human neuropeptide Y (NPY-Y1) ([7]; [125I]-PYY): − (“−” indicates less than 50% inhibition at 10 μM); A1: inhibition of radioligand binding, human δ-opioid (DOP) ([8]; [3H]-Bremazocine): − (“−” indicates less than 50% inhibition at 10 μM); A11: inhibition of radioligand binding, mouse urotensin (mUR2) ([9]; [125I]-Urotensin II): − (“−” indicates less than 50% inhibition at 10 μM); A10: inhibition of radioligand binding, human opioid (ORL1) ([10]; [125I]-Nociceptin): − (“−” indicates less than 50% inhibition at 10 μM); A3: inhibition of radioligand binding, human melanocortin (MC3) ([11]; [125I]-NDP-αMSH): − (“−” indicates less than 50% inhibition at 10 μM)
3 | CSC1OC(COCc2ccccc2)C(O)C(OCc2ccccc2)C1NC(=O)CCNC(=N)N (stereo not shown) [compound 251] |  |  |  |  |  |  |  |  |  |  |  | − (“−” indicates less than 50% inhibition at 10 μM) | + (“+” indicates greater than 50% inhibition at 10 μM) | − (“−” indicates less than 50% inhibition at 10 μM) | − (“−” indicates less than 50% inhibition at 10 μM) | − (“−” indicates less than 50% inhibition at 10 μM) | − (“−” indicates less than 50% inhibition at 10 μM) | − (“−” indicates less than 50% inhibition at 10 μM) | − (“−” indicates less than 50% inhibition at 10 μM) | − (“−” indicates less than 50% inhibition at 10 μM) | A10: inhibition of radioligand binding ([10]; [125I]-Nociceptin): − (“−” indicates less than 50% inhibition at 10 μM); A3: inhibition of radioligand binding ([11]; [125I]-NDP-αMSH): − (“−” indicates less than 50% inhibition at 10 μM)
4 | CSC1OC(COCc2ccc3ccccc3c2)C(O)C(OCc2ccccc2)C1NC(=O)CCCNC(=N)N (stereo not shown) [compound 264] |  |  |  |  |  |  |  |  |  |  |  | − (“−” indicates less than 50% inhibition at 10 μM) | + (“+” indicates greater than 50% inhibition at 10 μM) | − (“−” indicates less than 50% inhibition at 10 μM) | − (“−” indicates less than 50% inhibition at 10 μM) | − (“−” indicates less than 50% inhibition at 10 μM) | − (“−” indicates less than 50% inhibition at 10 μM) | − (“−” indicates less than 50% inhibition at 10 μM) | − (“−” indicates less than 50% inhibition at 10 μM) | − (“−” indicates less than 50% inhibition at 10 μM) | A10: inhibition of radioligand binding ([10]; [125I]-Nociceptin): − (“−” indicates less than 50% inhibition at 10 μM); A3: inhibition of radioligand binding ([11]; [125I]-NDP-αMSH): − (“−” indicates less than 50% inhibition at 10 μM)
5 | CO[C@H]1[C@H](O)[C@@H](COCc2ccc(Cl)cc2)OC(OCc2ccc3ccccc3c2)[C@@H]1NC(=O)CCNC(=N)N (stereo partly shown) [compound 79] | + (“+” indicates greater than 50% inhibition at 10 μM) | + (“+” indicates greater than 50% inhibition at 10 μM) | + (“+” indicates greater than 50% inhibition at 10 μM) | + (“+” indicates greater than 50% inhibition at 10 μM) | − (“−” indicates less than 50% inhibition at 10 μM) | − (“−” indicates less than 50% inhibition at 10 μM) | − (“−” indicates less than 50% inhibition at 10 μM) | − (“−” indicates less than 50% inhibition at 10 μM) | − (“−” indicates less than 50% inhibition at 10 μM) | − (“−” indicates less than 50% inhibition at 10 μM) | − (“−” indicates less than 50% inhibition at 10 μM) |  |  |  |  |  |  |  |  |  | 
